Measured values: US20230044787A1, “TRICYCLE DIHYDROIMIDAZOPYRIMIDONE DERIVATIVE, PREPARATION METHOD THEREOF, PHARMACEUTICAL COMPOSITION AND USE THEREOF” (priority 2019, published 2023)

These molecules were tested against T1, Lp-PLA2 (Homo sapiens, UniProt Q13093) (assay: Lipoprotein-associated phospholipase A2 (Lp-PLA2) human plasma assay (Thio-PAF assay)). Conditions: Lp-PLA2 human plasma assay (Thio-PAF), pooled human plasma, 30-min pre-incubation at room temperature.
T1 construct: aliquoted and thawed 40 μL of pooled human plasma was previously added; from tissue; host or cells: pooled human plasma
T1 sequence (Q13093 22-441): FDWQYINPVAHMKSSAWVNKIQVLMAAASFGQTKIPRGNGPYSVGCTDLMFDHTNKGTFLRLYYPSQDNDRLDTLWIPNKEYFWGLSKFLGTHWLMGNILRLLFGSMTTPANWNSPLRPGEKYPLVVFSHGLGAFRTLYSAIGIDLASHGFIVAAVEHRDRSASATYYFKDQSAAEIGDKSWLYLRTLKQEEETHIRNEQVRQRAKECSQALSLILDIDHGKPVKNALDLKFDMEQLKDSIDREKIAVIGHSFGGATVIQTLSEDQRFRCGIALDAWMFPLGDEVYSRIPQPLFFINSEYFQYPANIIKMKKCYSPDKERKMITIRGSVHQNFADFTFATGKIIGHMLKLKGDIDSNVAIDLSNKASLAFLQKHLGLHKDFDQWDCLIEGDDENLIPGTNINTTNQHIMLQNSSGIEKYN
Type: biochemical
Experimental: Lipoprotein-Associated Phospholipase A2 (Lp-PLA2) Human Plasma Assay
The amount of sulfhydryl groups is continuously determined by the reaction with CPM (7-diethylamino-3-(4′-maleimidophenyl)-4-methylcoumarin), and the CPM is a maleimide of which fluorescence increases after Michael addition of sulfhydryl group. This assay can detect Lp-PLA2 activity in human plasma, as determined by specific inhibition of Lp-PLA2 inhibitors.
Thio-PAF assay was performed as quenched 75 μL assay. Compound source plate was prepared for each compound by preparing 1:3 (by volume) serial dilutions in pure DMSO in a 96-well microplate. The compound on the source plate was diluted 20-fold by transferring 3 μL of the compound from the compound source plate into a 96-well microplate pre-added with 57 μL of assay buffer by Rainin multichannel pipette. The assay buffer described above consisted of 50 mM HEPES, pH 7.4, 150 mM NaCl, 1 mM CHAPS. 1 μL of the 20-fold diluted compound was transferred by Rainin multichannel pipette into a 96-well Greiner 655076 (black) microplate to which aliquoted and thawed 40 μL of pooled human plasma was previously added. The plate was shaken for 20 seconds on a microplate shaker to mix well. After a 30-min pre-incubation at room temperature, 10 μL of substrate solution was added to the 96-well Greiner 655076 (black) microplate by Rainin multichannel pipette, in which the substrate solution contained 2.5 mM 2-thio-PAF [from ethanol stock], 32 μM CPM [from DMSO stock], and 3.2 mM NEM (N-ethylmaleimide) [freshly prepared in DMSO per experiment] in assay buffer consisting of 50 mM HEPES, pH 7.4; 150 mM NaCl; 1 mM CHAPS. After 2 min, the reaction was quenched with […] of 5% trifluoroacetic acid (TFA) in water. The plate was centrifuged at 2000 rpm for 1 minute. The plate was read at ex:380/em:485 using a Biotek Synergy H1 (H1MF) microplate reader. IC50 data, curves and QC analysis were performed using GraphPad Prism 6.0 and Excel.

SMILES | IC50
CN1C[C@]23C[C@H]1CN2c1cc(OCc2ccc(Oc4ccnc(C(F)(F)F)c4)c(F)c2)nc(=O)n1C3 [Example 171, (3S,11aS)-7-((3-Fluoro-4-((2-(trifluoromethyl)pyridin-4-yl)oxy)benzyl)oxy)-2-methyl-1,2,3,4-tetrahydro-9H,11H-3,11a-methanopyrazino[1′, 2′:3, 4]imidazo[1,2-c]pyrimidin-9-one] | 2.1 nM
CC12CCCCN1c1cc(OCc3ccc(Oc4ccc(F)c(C(F)(F)F)c4)nc3)nc(=O)n1C2 (centres unmarked) [Example 69, 3-((6-(4-fluoro-3-(trifluoromethyl)phenoxy)pyridin-3-yl)methoxy)-9a-methyl-6,7,8,9,9a,10-hexahydro-1H-pyrido[1,2′:3,4]imidazo [1,2-c]pyrimidin-1-one] | 325 nM
Cn1cc(Oc2c(F)cc(COc3cc4n(c(=O)n3)CC3(C)CCCCN43)cc2F)cn1 (centres unmarked) [Example 68, 3-((3,5-difluoro-4-((1-methyl-1H-pyrazol-4-yl)oxy)benzyl)oxy)-9a-methyl-6,7,8,9,9a,10-hexahydro-1H-pyrido[1′,2′:3,4]imidazo [1,2-c]pyrimidin-1-one] | 50 nM
N#Cc1cc(Oc2ccc(COc3nc(=O)n4c(c3F)N3C[C@@H]5C[C@]3(CO5)C4)cc2F)cc(C(F)(F)F)c1 [Example 90] | 4.8 nM
CCC12CCCCN1c1cc(OCc3cc(F)c(Oc4ccnc(C(F)(F)F)c4)c(F)c3)nc(=O)n1C2 (centres unmarked) [Example 75, 3-((3,5-difluoro-4-((2-(trifluoromethyl)pyridin-4-yl)oxy)benzyl)oxy)-9a-ethyl-6,7,8,9,9a,10-hexahydro-1H-pyrido[1′,2′:3,4]imidazo [1,2-c]pyrimidin-1-one] | 23.4 nM
Cn1cc(Oc2c(F)cc(COc3cc4n(c(=O)n3)CC35CC(CN43)C5)cc2F)cn1 [Example 94, 3-((3,5-difluoro-4-((1-methyl-1H-pyrazol-4-yl)oxy)benzyl)oxy)-7,8-dihydro-1H,6H,9H-7,8a-methanopyrrolo[1′,2′:3,4] imidazo[1,2-c]pyrimidin-1-one] | 92.7 nM
O=c1nc(OCc2cc(F)c(Oc3ccnc(C(F)(F)F)c3)c(F)c2)c(Cl)c2n1C[C@]13CO[C@H](CN21)C3 [Example 91, (3S,11aR)-7-((3,5-difluoro-4-((2-(trifluoromethyl)pyridin-4-yl)oxy)benzyl)oxy)-6-chloro-3,4-dihydro-1H,9H,11H-3,11a-methanopyrimido[6′,1′:2,3] imidazo[5,1-c][1,4]oxazin-9-one] | 4.8 nM
CC12CCCCN1c1cc(OCc3ccc(Oc4cccc(C(F)(F)F)c4)c(C#N)c3)nc(=O)n1C2 (centres unmarked) [Example 71, 5-(((-9a-methyl-1-oxo-6,7,8,9,9a,10-hexahydro-1H-pyrido[1′,2′:3,4]imidazo [1,2-c]pyrimidin-3-yl)oxy)methyl)-2-(3-(trifluoromethyl)phenoxy) benzonitrile] | 7.9 nM
CC12CCCN1c1cc(OCc3cc(F)c(Oc4ccnc(C(F)(F)F)c4)c(F)c3)nc(=O)n1C2 (centres unmarked) [Example 54, 3-((3,5-difluoro-4-((2-(trifluoromethyl)pyridin-4-yl)oxy)benzyl)oxy)-8a-methyl-7,8,8a,9-tetrahydro-1H,6H-pyrrolo[1′,2′:3,4]imidazo [1,2-c]pyrimidin-1-one] | 7.6 nM
CC12CCCCN1c1cc(OCc3cc(F)c(Oc4ccnc(C(F)(F)F)c4)c(F)c3)nc(=O)n1C2 (centres unmarked) [Example 66, 3-((3,5-difluoro-4-((2-(trifluoromethyl)pyridin-4-yl)oxy)benzyl)oxy)-9a-methyl-6,7,8,9,9a,10-hexahydro-1H-pyrido[1′,2′:3,4]imidazo [1,2-c]pyrimidin-1-one] | 6.9 nM
O=c1nc(OCc2ccc(Oc3ccnc(C(F)(F)F)c3)c(F)c2)cc2n1CC13CC(F)(CN21)C3 [Example 157, 7-fluoro-3-((3-fluoro-4-((2-(trifluoromethyl)pyridin-4-yl)oxy)benzyl)oxy)-7,8-dihydro-1H,6H,9H-7,8a-methanopyrrolo[1′,2′:3,4] imidazo[1,2-c]pyrimidin-1-one] | 3.9 nM
O=c1nc(OCc2ccc(Oc3ccnc(C(F)F)c3)c(F)c2)cc2n1CC13CCC(CC1)N23 [Example 196] | 15.4 nM
O=c1nc(OCc2cc(F)c(Oc3cncc(C(F)(F)F)c3)c(F)c2)cc2n1CC13CC(CN21)C3 [Example 40] | 6.4 nM

The next lines start with the values.

IC50 | SMILES
62.7 nM | O=c1nc(OCCc2ccc(F)c(F)c2)cc2n1C[C@]13CO[C@H](CN21)C3 [Example 195, (3S,11aR)-7-(3,4-difluorophenethoxy)-3,4-dihydro-1H,9H,11H-3,11a-methano-pyrimido[6′,1′:2,3]imidazo[5,1-c][l,4]oxazin-9-one]
5.2 nM | O=c1nc(OCc2ccc(Oc3ccc(Cl)c(C(F)(F)F)c3)cc2)cc2n1C[C@]13CO[C@H](CN21)C3 [Example 16, (3S,11aR)-7-((4-(4-chloro-3-(trifluoromethyl)phenoxy)benzyl)oxy)-3,4-dihydro-1H,9H,11H-3,11a-methanopyrimido[6′,1′:2,3] imidazo[5,1-c][1,4]oxazin-9-one]
9.4 nM | O=c1nc(OCCc2ccc(Oc3cccc(C(F)(F)F)c3)c(F)c2)cc2n1CC13CC(CN21)C3 [Example 182, 3-(3-fluoro-4-(3-(trifluoromethyl)phenoxy)phenethoxy)-7,8-dihydro-1H,6H,9H-7,8a-methanopyrrolo[1′,2′:3,4]imidazo[1,2-c] pyrimidin-1-one]
3.7 nM | [2H]C1([2H])n2c(cc(OCc3cc(F)c(Oc4ccnc(C(F)(F)F)c4)c(F)c3)nc2=O)N2C[C@@H]3C[C@@]21CO3 [Example 93]
4.7 nM | O=c1nc(OCCc2ccc(Oc3ccc(Cl)c(C(F)(F)F)c3)c(F)c2)cc2n1C[C@]13CO[C@H](CN21)C3 [Example 185]
5 nM | Cc1c(OCc2ccc(Oc3ccnc(C(F)(F)F)c3)cc2)nc(=O)n2c1N1C[C@@H]3C[C@]1(CO3)C2 [Example 108, (3S,11aR)-7-((4-((2-(trifluoromethyl)pyridin-4-yl)oxy)benzyl)oxy)-6-methyl-3,4-dihydro-1H,9H,11H-3,11a-methanopyrimido[6′,1′:2,3] imidazo[5,1-c][1,4]oxazin-9-one]
10.8 nM | O=c1nc(OCc2ccc(Oc3ccnc(C(F)(F)F)c3)cc2F)cc2n1CC13CC(CN21)C3 [Example 105, 3-((2-fluoro-4-((2-(trifluoromethyl)pyridin-4-yl)oxy)benzyl)oxy)-7,8-dihydro-1H,6H,9H-7,8a-methanopyrrolo[1′,2′:3,4] imidazo[1,2-c]pyrimidin-1-one]
6.4 nM | N#Cc1cc(COc2cc3n(c(=O)n2)C[C@]24CO[C@H](CN32)C4)ccc1Oc1ccc(C(F)(F)F)cc1 [Example 21]
3.4 nM | CC12CCCN1c1cc(OCCc3ccc(Oc4ccc(Cl)c(C(F)(F)F)c4)cc3)nc(=O)n1C2 (centres unmarked) [Example 61, 3-(4-(4-chloro-3-(trifluoromethyl)phenoxy)phenethoxy)-8a-methyl-7,8,8a,9-tetrahydro-1H,6H-pyrrolo[1′,2′:3,4]imidazo [1,2-c]pyrimidin-1-one]
3.8 nM | O=c1nc(OCc2cc(F)c(Oc3ccc(F)c(F)c3)c(F)c2)cc2n1C[C@]13CO[C@H](CN21)C3 [Example 136]
164 nM | O=c1nc(OCc2ccc(Oc3ccc(F)c(C(F)(F)F)c3)nc2)cc2n1C[C@@]13CO[C@@H](CN21)C3 [Example 32, (3R,11aS)-7-((6-(4-fluoro-3-(trifluoromethyl)phenoxy)pyridin-3-yl)methoxy)-3,4-dihydro-1H,9H,11H-3,11a-methanopyrimido[6′,1′:2,3] imidazo[5,1-c][1,4]oxazin-9-one]
4.1 nM | O=c1nc(OCc2ccc(Oc3ccnc(OC(F)(F)F)c3)c(F)c2)cc2n1CC13CC(CN21)C3 [Example 153]
10.8 nM | Cn1cc(Oc2c(F)cc(COc3cc4n(c(=O)n3)C[C@]35CO[C@H](CN43)C5)cc2F)cn1 [Example 11, (3S,11aR)-7-((3,5-difluoro-4-((1-methyl-1H-pyrazol-4-yl)oxy)benzyl)oxy)-3,4-dihydro-1H,9H,11H-3,11a-methanopyrimido[6′,1′:2,3] imidazo[5,1-c][1,4]oxazin-9-one]
